Article PMC6630832, “3-Vinylazetidin-2-Ones: Synthesis, Antiproliferative and Tubulin Destabilizing Activity in MCF-7 and MDA-MB-231 Breast Cancer Cells” (Pharmaceuticals, 2019)

How the values were obtained:
[1] = system: human MCF-7 breast cancer cells; assay: Cell viability (Alamar Blue) antiproliferative assay in MCF-7 cells; type: cell-based; conditions: Homo sapiens, MCF7, 72 h, human MCF-7 breast cancer cells; 72 h; mean ± SEM; read-out: Antiproliferative Activity IC50
Method: The human breast carcinoma cell line MCF-7, was purchased from the European Collection of Animal Cell Cultures (ECACC) and was cultured in Eagle’s minimum essential medium with 10% fetal bovine serum, 2 mM L-glutamine and 100 μg/mL penicillin/streptomycin. The medium was supplemented with 1% non-essential amino acids. The human breast carcinoma cell line MDA-MB-231 was purchased from the European Collection of Animal Cell Cultures (ECACC). MDA-MB-231 cells were maintained in Dulbecco’s modified Eagle’s medium (DMEM) supplemeted with 10% (v/v) fetal bovine serum, 2 mM L-glutamine and 100 μg/mL penicillin/streptomycin (complete medium). All media contained 100 U/mL penicillin and 100 μg/mL streptomycin. Triple negative breast cancer Hs578T cells and its invasive variant Hs578Ts(i)8 were obtained as a kind gift from Dr. Susan McDonnell, School of Chemical and Bioprocess Engineering, University College Dublin and were cultured in Dulbecco’s Modified Eagle’s Media (DMEM) with GlutaMAX^TM-I, with the same supplement as for MDA-MB-231 cells in the absence of non-essential amino acids. HEK-293T normal epithelial embryonic kidney cells were cultured in Dulbecco’s Modified Eagle’s Medium (DMEM) with GlutaMAX^TM-I in the absence of non-essential amino acids. K562 and HL-60 cells were originally obtained from the European Collection of Cell Cultures (Salisbury, UK).The K562 cells were derived from a patient in the blast crisis stage of CML HL-60 cells were derive from a patient with acute myeloid leukaemia. Cells were cultured in RPMI-1640 Glutamax medium supplemented with 10% FCS media, and 100 μg/mL penicillin/streptomycin. Cells were maintained at 37 °C in 5% CO2 in a humidified incubator. All cells were sub-cultured three times/week (adherent cells by trypsinisation).
Cells were seeded at a density of 5 × 10^3 cells/well (MCF-7), in triplicate in 96-well plates. After 24 h, cells were then treated with either medium alone, vehicle [1% ethanol (v/v)] or with serial dilutions of CA-4 or β-lactam analogue. Cell viability for MCF-7 and MDA-MB-231 was analysed using the Alamar Blue assay (Invitrogen Corp, Thermo Fisher Scientific, 168 Third Avenue, Waltham, MA, USA) according to the manufacturer’s instructions. After 72 h, Alamar Blue [10% (v/v)] was added to each well and plates were incubated for 3–5 h at 37 °C in the dark. Fluorescence was read using a 96-well fluorimeter with excitation at 530 nm and emission at 590 nm. Results were expressed as percentage viability relative to vehicle control (100%). Dose response curves were plotted and IC50 values (concentration of drug resulting in 50% reduction in cell survival) were obtained using the commercial software package Prism (GraphPad Software, Inc., 2365 Northside, Suite 560, San Diego, CA, USA). Experiments were performed in triplicate on at least three separate occasions.

Row | SMILES | IC50 [1] | melting point
1 | C=CC1C(=O)N(c2cc(OC)c(OC)c(OC)c2)C1c1ccc(F)cc1 (stereo not shown) [Compound 7a, 4-(4-Fluorophenyl)-1-(3,4,5-trimethoxyphenyl)-3-vinylazetidin-2-one] | 8.31 ± 1.4 µM | 147 to 149 °C
2 | C=CC1C(=O)N(c2cc(OC)c(OC)c(OC)c2)C1c1ccc(Br)cc1 (stereo not shown) [Compound 7c, 4-(4-Bromophenyl)-1-(3,4,5-trimethoxyphenyl)-3-vinylazetidin-2-one] | 0.445 ± 0.07 µM | –
3 | C=CC1C(=O)N(c2cc(OC)c(OC)c(OC)c2)C1c1ccc(N(C)C)cc1 (stereo not shown) [Compound 7e, 4-(4-Dimethylaminophenyl)-1-(3,4,5-trimethoxyphenyl)-3-vinylazetidin-2-one] | 4.05 ± 0.45 µM | –
4 | C=CC1C(=O)N(c2cc(OC)c(OC)c(OC)c2)C1c1ccccc1 (stereo not shown) [Compound 7f, 4-Phenyl-1-(3,4,5-trimethoxyphenyl)-3-vinylazetidin-2-one] | 4.03 ± 0.42 µM | 109 to 111 °C
5 | C=CC1C(=O)N(c2cc(OC)c(OC)c(OC)c2)C1c1ccc(C)cc1 (stereo not shown) [Compound 7g, 4-p-Tolyl-1-(3,4,5-trimethoxyphenyl)-3-vinylazetidin-2-one] | 0.355 ± 0.03 µM | 106 to 107 °C
6 | C=CC1C(=O)N(c2cc(OC)c(OC)c(OC)c2)C1c1ccc(OCCCC)cc1 (stereo not shown) [Compound 7j, 4-(4-Butoxyphenyl)-1-(3,4,5-trimethoxyphenyl)-3-vinylazetidin-2-one] | 14 ± 1.81 µM | 100 to 102 °C
7 | C=CC1C(=O)N(c2cc(OC)c(OC)c(OC)c2)C1c1ccc(Oc2ccccc2)cc1 (stereo not shown) [Compound 7k, 4-(4-Phenoxyphenyl)-1-(3,4,5-trimethoxyphenyl)-3-vinylazetidin-2-one] | 57 ± 3.72 µM | 128 to 130 °C
8 | C=CC1C(=O)N(c2cc(OC)c(OC)c(OC)c2)C1c1ccc(OCc2ccccc2)cc1 (stereo not shown) [Compound 7l, 4-(4-Benzyloxyphenyl)-1-(3,4,5-trimethoxyphenyl)-3-vinylazetidin-2-one] | 8.02 ± 0.63 µM | 148 to 149 °C
9 | C=CC1C(=O)N(c2cc(OC)c(OC)c(OC)c2)C1c1cccc2ccccc12 (stereo not shown) [Compound 7m, 4-Naphthalen-1-yl-1-(3,4,5-trimethoxyphenyl)-3-vinylazetidin-2-one] | 1.74 ± 0.17 µM | 121 to 122 °C
10 | C=CC1C(=O)N(c2cc(OC)c(OC)c(OC)c2)C1c1ccc(OC)c([N+](=O)[O-])c1 (stereo not shown) [Compound 7p, 4-(4-Methoxy-3-nitrophenyl)-1-(3,4,5-trimethoxyphenyl)-3-vinylazetidin-2-one] | 0.618 ± 0.1 µM | –
11 | C=CC1C(=O)N(c2ccc(F)cc2)C1c1cc(OC)c(OC)c(OC)c1 (stereo not shown) [Compound 8a, 4-(3,4,5-Trimethoxyphenyl)-1-(4-fluorophenyl)-3-vinylazetidin-2-one] | 1.07 ± 0.14 µM | –
12 | C=CC1C(=O)N(c2ccc(Cl)cc2)C1c1cc(OC)c(OC)c(OC)c1 (stereo not shown) [Compound 8b, 4-(3,4,5-Trimethoxyphenyl)-1-(4-chlorophenyl)-3-vinylazetidin-2-one] | 29.2 ± 1.14 µM | 131 to 133 °C
13 | C=CC1C(=O)N(c2ccc(Br)cc2)C1c1cc(OC)c(OC)c(OC)c1 (stereo not shown) [Compound 8c, 4-(3,4,5-Trimethoxyphenyl)-1-(4-bromophenyl)-3-vinylazetidin-2-one] | 10.4 ± 0.87 µM | 120 to 122 °C
14 | C=CC1C(=O)N(c2ccc([N+](=O)[O-])cc2)C1c1cc(OC)c(OC)c(OC)c1 (stereo not shown) [Compound 8d, 4-(3,4,5-Trimethoxyphenyl)-1-(4-nitrophenyl)-3-vinylazetidin-2-one] | 59.1 ± 4.16 µM | –
15 | C=CC1C(=O)N(c2ccc(C(C)(C)C)cc2)C1c1cc(OC)c(OC)c(OC)c1 (stereo not shown) [Compound 8e, 4-(3,4,5-Trimethoxyphenyl)-1-(4-tert-butylphenyl)-3-vinylazetidin-2-one] | 68.8 ± 3.63 µM | 172 to 174 °C
16 | COc1ccc(C2CC(=O)N2c2cc(OC)c(OC)c(OC)c2)cc1O (stereo not shown) [Compound 9c, 4-(3-Hydroxy-4-methoxyphenyl)-1-(3,4,5-trimethoxyphenyl)-azetidin-2-one] | 0.017 µM | 78 to 80 °C
17 | COc1ccc(C2C(C(C)O)C(=O)N2c2cc(OC)c(OC)c(OC)c2)cc1O (stereo not shown) [Compound 10a, 3-(1-Hydroxyethyl)-4-(3-hydroxy-4-methoxyphenyl)-1-(3,4,5-trimethoxyphenyl) azetidin-2-one] | 0.065 ± 0.015 µM | –
18 | C/C=C/C(O)C1C(=O)N(c2cc(OC)c(OC)c(OC)c2)C1c1ccc(OC)cc1 (stereo not shown) [Compound 10b, 3-((E)-1-Hydroxybut-2-enyl)-1-(3,4,5-trimethoxyphenyl)-4-(4-methoxyphenyl) azetidin-2-one] | 0.292 ± 0.05 µM | 143 to 144 °C
19 | COc1ccc(C2C(C(C)=O)C(=O)N2c2cc(OC)c(OC)c(OC)c2)cc1O (stereo not shown) [Compound 11, 3-Acetyl-4-(3-hydroxy-4-methoxyphenyl)-1-(3,4,5-trimethoxyphenyl)azetidin-2-one] | 0.414 ± 0.132 µM | –

More lines, now with the values ahead:

Row | IC50 [1] | melting point | SMILES
20 | 50.5 ± 4.25 µM | 150 to 151 °C | C=CC1C(=O)N(c2ccccc2)C1c1cc(OC)c(OC)c(OC)c1 (stereo not shown) [Compound 8f, 4-(3,4,5-Trimethoxyphenyl)-1-phenyl-3-vinylazetidin-2-one]
21 | 43.1 ± 2.16 µM | – | C=CC1C(=O)N(c2ccc(C)cc2)C1c1cc(OC)c(OC)c(OC)c1 (stereo not shown) [Compound 8g, 4-(3,4,5-Trimethoxyphenyl)-1-p-tolyl-3-vinylazetidin-2-one]
22 | 36.4 ± 2.13 µM | 110 to 112 °C | C=CC1C(=O)N(c2ccc(CC)cc2)C1c1cc(OC)c(OC)c(OC)c1 (stereo not shown) [Compound 8h, 4-(3,4,5-Trimethoxyphenyl)-1-(4-ethylphenyl)-3-vinylazetidin-2-one]
23 | 65.1 ± 5.55 µM | – | C=CC1C(=O)N(c2ccc(OC)cc2)C1c1cc(OC)c(OC)c(OC)c1 (stereo not shown) [Compound 8i, 4-(3,4,5-Trimethoxyphenyl)-1-(4-methoxyphenyl)-3-vinylazetidin-2-one]
24 | 4.02 ± 0.64 µM | 223 to 224 °C | C=CC1C(=O)N(c2ccc(NC(C)=O)cc2)C1c1cc(OC)c(OC)c(OC)c1 (stereo not shown) [Compound 8j, N-(4-(2-(3,4,5-Trimethoxyphenyl)-4-oxo-3-vinylazetidin-1-yl)phenyl)acetamide]
25 | > 50 µM | 104 to 106 °C | C=CC1C(=O)N(c2ccc(SC)cc2)C1c1cc(OC)c(OC)c(OC)c1 (stereo not shown) [Compound 8k, 1-(4-(Methylthio)phenyl)-4-(3,4,5-trimethoxyphenyl)-3-vinylazetidin-2-one]
26 | 0.537 ± 0.08 µM | – | COc1ccc(C2C(C(O)/C=C/c3ccccc3)C(=O)N2c2cc(OC)c(OC)c(OC)c2)cc1 (stereo not shown) [Compound 10e, 3-((E)-1-Hydroxy-3-phenylallyl)-1-(3,4,5-trimethoxyphenyl)-4-(4-methoxyphenyl) azetidin-2-one]
27 | 0.288 ± 0.076 µM | – | C=CC(O)C1C(=O)N(c2cc(OC)c(OC)c(OC)c2)C1c1ccc(OC)c(O)c1 (stereo not shown) [Compound 10g, 4-(3-Hydroxy-4-methoxyphenyl)-3-(1-hydroxyallyl)-1-(3,4,5-trimethoxyphenyl) azetidin-2-one]
28 | 0.467 ± 0.000253 µM | – | C=CC(C)(O)C1C(=O)N(c2cc(OC)c(OC)c(OC)c2)C1c1ccc(OC)c(O)c1 (stereo not shown) [Compound 10h, 4-(3-Hydroxy-4-methoxy-phenyl)-3-(1-hydroxy-1-methylallyl)-1-(3,4,5-trimethoxy-phenyl)-azetidin-2-one]
29 | 0.069 ± 0.029 µM | – | COc1ccc(C2C(C(O)CO)C(=O)N2c2cc(OC)c(OC)c(OC)c2)cc1O (stereo not shown) [Compound 13, 3-(1,2-Dihydroxyethyl)-4-(3-hydroxy-4-methoxyphenyl)-1-(3,4,5-trimethoxyphenyl) azetidin-2-one]
30 | 3.25 ± 0.27 µM | – | C=CC1C(=O)N(c2cc(OC)c(OC)c(OC)c2)C1c1ccc(OC)c(NC(=O)C(C)N)c1 (stereo not shown) [Compound 15, 2-Amino-N-(2-methoxy-5-(1-(3,4,5-trimethoxyphenyl)-4-oxo-3-vinylazetidin-2-yl)phenyl)propanamide]
